Measurements reported in the NIST ThermoML archive (doi:10.1021/je800463k).
Numbers after ± are expanded uncertainties.

Experiment: mn = molality of the nth substance listed, in mol/kg
Details: 101 kPa, Liquid; for mass density: Pycnometric method; for electrical conductivity: Frequency=0.001 MHz, Alternating current cell with electrodes; for speed of sound: Frequency=2 MHz

CC(=O)[O-].CC(=O)[O-].[Mg+2] [magnesium acetate] + CO
mass density (299.65 K, m1 = 0.2422): 803.36 ± 8 kg/m3 | mass density (300.15 K, m1 = 0.2003): 800.18 ± 4.6 kg/m3 | mass density (300.2 K, m1 = 0.1402): 796.94 ± 3.2 kg/m3 | mass density (300.25 K, m1 = 0.0646): 791.69 ± 3.9 kg/m3 | mass density (300.35 K, m1 = 0.053): 789.91 ± 3.2 kg/m3 | mass density (300.8 K, m1 = 0.0339): 788.95 ± 1.2 kg/m3 | mass density (300.8 K, m1 = 0.3042): 804.76 ± 5.4 kg/m3 | mass density (300.85 K, m1 = 0.014): 787.26 ± 0.86 kg/m3 | mass density (300.85 K, m1 = 0.2668): 803.07 ± 4.7 kg/m3 | mass density (301.1 K, m1 = 0.1112): 794.25 ± 3.5 kg/m3 | mass density (301.5 K, m1 = 0.2422): 801.62 ± 8.2 kg/m3 | mass density (301.9 K, m1 = 0.2003): 798.5 ± 2.5 kg/m3 | mass density (301.9 K, m1 = 0.2192): 799.27 ± 3.7 kg/m3 | mass density (301.95 K, m1 = 0.1798): 798.03 ± 1.7 kg/m3 | mass density (302.05 K, m1 = 0.0646): 790 ± 3.8 kg/m3 | mass density (302.15 K, m1 = 0.053): 788.23 ± 1.8 kg/m3 | mass density (302.2 K, m1 = 0.0093): 785.05 ± 0.98 kg/m3 | mass density (302.35 K, m1 = 0.0059): 784.31 ± 0.89 kg/m3 | mass density (302.55 K, m1 = 0.3042): 803.02 ± 5.1 kg/m3 | mass density (302.8 K, m1 = 0.2668): 801.25 ± 4.3 kg/m3 | mass density (302.85 K, m1 = 0.1455): 794.77 ± 4 kg/m3 | mass density (302.9 K, m1 = 0.1402): 794.38 ± 3.9 kg/m3 | mass density (303.05 K, m1 = 0.0855): 789.45 ± 2.5 kg/m3 | electrical conductivity (303.15 K, m1 = 0.0059): 0.0362 ± 0.0001 S/m | electrical conductivity (303.15 K, m1 = 0.0093): 0.0586 ± 0.0001 S/m | electrical conductivity (303.15 K, m1 = 0.018): 0.0665 ± 0.0001 S/m | electrical conductivity (303.15 K, m1 = 0.0339): 0.0868 ± 0.0001 S/m | electrical conductivity (303.15 K, m1 = 0.053): 0.1018 ± 0.0001 S/m | electrical conductivity (303.15 K, m1 = 0.0646): 0.1103 ± 0.0001 S/m | electrical conductivity (303.15 K, m1 = 0.0855): 0.122 ± 0.0001 S/m | electrical conductivity (303.15 K, m1 = 0.1024): 0.1302 ± 0.0001 S/m | electrical conductivity (303.15 K, m1 = 0.1402): 0.1487 ± 0.0001 S/m | electrical conductivity (303.15 K, m1 = 0.1455): 0.1524 ± 0.0001 S/m | electrical conductivity (303.15 K, m1 = 0.1837): 0.1617 ± 0.0001 S/m | electrical conductivity (303.15 K, m1 = 0.2422): 0.1746 ± 0.0001 S/m | electrical conductivity (303.15 K, m1 = 0.2889): 0.181 ± 0.0001 S/m | speed of sound (303.15 K, m1 = 0.0059): 1086.1 ± 6.4 m/s | speed of sound (303.15 K, m1 = 0.0093): 1085.4 ± 6.4 m/s | speed of sound (303.15 K, m1 = 0.018): 1086.1 ± 6.4 m/s | speed of sound (303.15 K, m1 = 0.053): 1087.5 ± 6.4 m/s | speed of sound (303.15 K, m1 = 0.0855): 1090.3 ± 6.4 m/s | speed of sound (303.15 K, m1 = 0.1024): 1093.3 ± 6.4 m/s | speed of sound (303.15 K, m1 = 0.1402): 1092.4 ± 6.4 m/s | speed of sound (303.15 K, m1 = 0.1455): 1091.9 ± 6.4 m/s | speed of sound (303.15 K, m1 = 0.1837): 1094.3 ± 6.4 m/s | speed of sound (303.15 K, m1 = 0.2192): 1097.7 ± 6.4 m/s | speed of sound (303.15 K, m1 = 0.2422): 1095.1 ± 6.4 m/s | speed of sound (303.15 K, m1 = 0.2889): 1098.2 ± 6.4 m/s | speed of sound (303.15 K, m1 = 0.3042): 1099.8 ± 6.4 m/s | mass density (303.15 K, m1 = 0.0059): 783.47 ± 0.79 kg/m3 | viscosity (303.15 K, m1 = 0.014): 0.5207 ± 0.015 mPa·s | viscosity (303.15 K, m1 = 0.018): 0.5223 ± 0.015 mPa·s | viscosity (303.15 K, m1 = 0.0339): 0.5306 ± 0.015 mPa·s | viscosity (303.15 K, m1 = 0.0646): 0.5393 ± 0.015 mPa·s | viscosity (303.15 K, m1 = 0.1012): 0.5622 ± 0.015 mPa·s | viscosity (303.15 K, m1 = 0.13): 0.5718 ± 0.016 mPa·s | viscosity (303.15 K, m1 = 0.1402): 0.5779 ± 0.016 mPa·s | viscosity (303.15 K, m1 = 0.17): 0.5933 ± 0.016 mPa·s | viscosity (303.15 K, m1 = 0.2003): 0.6048 ± 0.016 mPa·s | viscosity (303.15 K, m1 = 0.2422): 0.6232 ± 0.017 mPa·s | viscosity (303.15 K, m1 = 0.2453): 0.6232 ± 0.017 mPa·s | viscosity (303.15 K, m1 = 0.2889): 0.642 ± 0.017 mPa·s | mass density (303.25 K, m1 = 0.2422): 799.9 ± 8 kg/m3 | mass density (303.45 K, m1 = 0.0339): 786.42 ± 1.3 kg/m3 | mass density (303.5 K, m1 = 0.014): 784.74 ± 0.81 kg/m3 | mass density (303.65 K, m1 = 0.2192): 797.61 ± 7.3 kg/m3 | mass density (303.75 K, m1 = 0.1112): 791.73 ± 3.4 kg/m3 | mass density (303.95 K, m1 = 0.053): 786.54 ± 0.98 kg/m3 | mass density (304.35 K, m1 = 0.3042): 801.29 ± 5.3 kg/m3 | mass density (304.6 K, m1 = 0.1402): 792.72 ± 4.6 kg/m3 | mass density (304.6 K, m1 = 0.1798): 795.47 ± 4.2 kg/m3 | mass density (304.6 K, m1 = 0.2003): 795.91 ± 3.9 kg/m3 | mass density (304.65 K, m1 = 0.0646): 787.5 ± 2 kg/m3 | mass density (304.75 K, m1 = 0.0855): 787.76 ± 2.7 kg/m3 | mass density (304.85 K, m1 = 0.2668): 799.19 ± 4.6 kg/m3 | mass density (304.9 K, m1 = 0.0093): 782.5 ± 1 kg/m3 | mass density (304.95 K, m1 = 0.0059): 781.79 ± 0.87 kg/m3 | mass density (305.3 K, m1 = 0.014): 783.09 ± 0.94 kg/m3 | mass density (305.5 K, m1 = 0.1455): 792.24 ± 3.8 kg/m3 | mass density (305.65 K, m1 = 0.053): 784.95 ± 1.8 kg/m3 | mass density (305.8 K, m1 = 0.2422): 797.4 ± 4.7 kg/m3 | mass density (305.95 K, m1 = 0.0339): 783.96 ± 0.88 kg/m3 | mass density (306.1 K, m1 = 0.3042): 799.61 ± 5.2 kg/m3 | mass density (306.15 K, m1 = 0.2192): 795.21 ± 3.2 kg/m3 | mass density (306.25 K, m1 = 0.1402): 791.07 ± 3.9 kg/m3 | mass density (306.3 K, m1 = 0.1112): 789.29 ± 2.8 kg/m3 | mass density (306.35 K, m1 = 0.2003): 794.29 ± 2.5 kg/m3 | mass density (306.4 K, m1 = 0.1798): 793.8 ± 4.3 kg/m3 | mass density (306.55 K, m1 = 0.0093): 780.91 ± 1 kg/m3 | mass density (306.65 K, m1 = 0.0059): 780.15 ± 0.89 kg/m3 | mass density (306.95 K, m1 = 0.2668): 797.14 ± 3.5 kg/m3 | mass density (307.1 K, m1 = 0.0646): 785.07 ± 1.6 kg/m3 | mass density (307.3 K, m1 = 0.053): 783.25 ± 1.6 kg/m3 | mass density (307.3 K, m1 = 0.1455): 790.54 ± 4.9 kg/m3 | mass density (307.35 K, m1 = 0.0855): 785.26 ± 2.7 kg/m3 | mass density (307.5 K, m1 = 0.2422): 795.76 ± 8.2 kg/m3 | mass density (307.7 K, m1 = 0.0339): 782.34 ± 1.3 kg/m3 | mass density (307.7 K, m1 = 0.3042): 797.95 ± 5.3 kg/m3 | mass density (307.75 K, m1 = 0.014): 780.67 ± 0.85 kg/m3 | mass density (307.8 K, m1 = 0.2192): 793.51 ± 7.4 kg/m3 | mass density (307.95 K, m1 = 0.1402): 789.51 ± 3.7 kg/m3 | electrical conductivity (308.15 K, m1 = 0.0059): 0.0369 ± 0.0001 S/m | electrical conductivity (308.15 K, m1 = 0.0093): 0.0592 ± 0.0001 S/m | electrical conductivity (308.15 K, m1 = 0.018): 0.0674 ± 0.0001 S/m | electrical conductivity (308.15 K, m1 = 0.0339): 0.0879 ± 0.0001 S/m | electrical conductivity (308.15 K, m1 = 0.053): 0.103 ± 0.0001 S/m | electrical conductivity (308.15 K, m1 = 0.0646): 0.112 ± 0.0001 S/m | electrical conductivity (308.15 K, m1 = 0.0855): 0.1232 ± 0.0001 S/m | electrical conductivity (308.15 K, m1 = 0.1024): 0.1326 ± 0.0001 S/m | electrical conductivity (308.15 K, m1 = 0.1402): 0.151 ± 0.0001 S/m | electrical conductivity (308.15 K, m1 = 0.1455): 0.1557 ± 0.0001 S/m | electrical conductivity (308.15 K, m1 = 0.1837): 0.1631 ± 0.0001 S/m | electrical conductivity (308.15 K, m1 = 0.2422): 0.1782 ± 0.0001 S/m | electrical conductivity (308.15 K, m1 = 0.2889): 0.1835 ± 0.0001 S/m | speed of sound (308.15 K, m1 = 0.0059): 1070.1 ± 6.3 m/s | speed of sound (308.15 K, m1 = 0.0093): 1068.7 ± 6.3 m/s | speed of sound (308.15 K, m1 = 0.018): 1071.5 ± 6.3 m/s | speed of sound (308.15 K, m1 = 0.053): 1075.1 ± 6.3 m/s
